The values that follow come from ChEMBL document CHEMBL1135405, “Solid-phase library synthesis, screening, and selection of tight-binding reduced peptide bond inhibitors of a recombinant Leishmania mexicana cysteine protease B” (J Med Chem, 2002).

Data set [1] relates to Cysteine protease B (Leishmania mexicana). Nature of the data set: Inhibitory potency against Cysteine protease B, expressed as kinetic constant (kcat/Km).
Compound in data set [2]: C[C@@H](O)[C@H](NC(=O)[C@H](CCCN=C(N)N)NC(=O)[C@H](Cc1ccccc1)NC(=O)[C@H](CCCN=C(N)N)NC(=O)[C@@H]1CCCN1C(=O)[C@@H](N)Cc1ccc([N+](=O)[O-])cc1)C(=O)NCC(=O)N[C@@H](CO)C(=O)N[C@@H](CCCCNC(=O)c1ccccc1N)C(=O)NCC(=O)O
Kind of data set: Inhibitory potency against Cysteine protease B, expressed as kinetic constant (Km). The conditions noted are these: Leishmania mexicana.

The term Km denotes the substrate concentration at which the rate is half of its maximum.

Square brackets hold non-standard residues; d marks the D form. Peptide text beside a SMILES is read from it. Phe(4-NO2) = N[C@@H](Cc1ccc([N+](=O)[O-])cc1)C(=O)O; 2Abz = Nc1ccccc1C(=O)O

In turn, `C[C@@H](O)[C@H](NC(=O)[C@H](CCCN=C(N)N)NC(=O)[C@H](Cc1ccccc1)NC(=O)[C@H](CCCN=C(N)N)NC(=O)[C@@H]1CCCN1C(=O)[C@@H](N)Cc1ccc([N+](=O)[O-])cc1)C(=O)NCC(=O)N[C@@H](CO)C(=O)N[C@@H](CCCCNC(=O)c1ccccc1N)C(=O)NCC(=O)O` (H-[Phe(4-NO2)]PRFRTGSK(2Abz)G-OH) registered a k cat/Km in data set [1] of 1300 mM/s.

B1: Human rhinovirus A protease (Human rhinovirus sp.), Q4U254 (protein)
chain: AFRPCNVNTKIGNAKCCPFVCGKAVTFKDRSTCSTYNLSSSLHHILEEDKRRRQVVDVMSAIFQGPISLDAPPPPAIADLLQSVRTPRVIKYCQIIMGHPAECQVERDLNIANSIIAIIANIISIAGIIFVIYKLFCSLQGPYSGEPKPKTKVPERRVVAQGPEEEFGRSILKNNTCVITTGNGKFTGLGIHDRILIIPTHADPGREVQVNGVHTKVLDSYDLYNRDGVKLEITVIQLDRNEKFRDIRKYIPETEDDYPECNLALSANQDEPTIIKVGDVVSYGNILLSGNQTARMLKYNYPTKSGYCGGVLYKIGQILGIHVGGNGRDGFSAMLLRSYFTGQIKVNKHATECGLPDIQTIHTPSKTKLQPSVFYDVFPGSKEPAVLTDNDPRLEVNFKEA
Take B1: the Km in data set [2] was 1.13 µM.
